The results in this text go back to paper PMC7180948, “New Insights into 4-Anilinoquinazolines as Inhibitors of Cardiac Troponin I–Interacting Kinase (TNNi3K)” (Molecules, 2020).

The term inhibition denotes the change of the read-out against control, counted positive when it falls.

What all share (experiment): biochemical
What all share (parameters): KINOMEscan competition binding panel (Eurofins DiscoverX), single concentration, % inhibition
Holding throughout (conditions): read-out: 7 at 1 µM % inhibition

Experiment [1] deals with EGFR(L858R,T790M) (Homo sapiens, UniProt P00533, L858R/T790M). In a few lines:
(§1)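 Kinome-wide profiling (KINOMEscan, >400 human kinases) was run at 1 µM compound.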

The target in experiment [2] is AKT1 (Homo sapiens, UniProt P31749). The procedure, abridged:
as §1

The target in experiment [3] is T1, RSK1(Kin.Dom.1-N-terminal) (Homo sapiens, UniProt Q15418).
T1 construct: gene RPS6KA1; Kin.Dom.1-N-terminal
In a few lines:
as §1

Experiment [4] deals with PIK3CA(E545A) (Homo sapiens, UniProt P42336, E545A). The procedure, abridged:
as §1

Experiment [5] has as its target SNRK (Homo sapiens, UniProt Q9NRH2). The procedure, abridged: as §1
In experiment [6] the target is TGFBR2 (Homo sapiens, UniProt P37173). The procedure, abridged:
as §1

For experiment [7], the target named is EIF2AK1 (Homo sapiens, UniProt Q9BQI3). In a few lines: as §1
Experiment [8] has as its target T2, GCN2(Kin.Dom.2,S808G) (Homo sapiens, UniProt Q9P2K8, S808G).
T2 construct: gene EIF2AK4; Kin.Dom.2
In a few lines: as §1

Experiment [9] addresses T3, p38-beta (Homo sapiens, UniProt Q15759).
T3 construct: gene MAPK11
In a few lines:
as §1

Experiment [10] has as its target GSK3A (Homo sapiens, UniProt P49840). The procedure, abridged: as §1
Experiment [11] deals with T4, RSK2(Kin.Dom.1-N-terminal) (Homo sapiens, UniProt P51812).
T4 construct: gene RPS6KA3; Kin.Dom.1-N-terminal
The procedure, abridged: as §1

The target in experiment [12] is MAP3K3 (Homo sapiens, UniProt Q99759). The procedure, abridged:
as §1

The target of experiment [13] is TESK1 (Homo sapiens, UniProt Q15569). The procedure, abridged: as §1
Experiment [14] addresses T5, OSR1 (Homo sapiens, UniProt O95747).
T5 construct: gene OXSR1
In a few lines: as §1

In experiment [15] the target is T6, ABL1(F317L)-nonphosphorylated (Homo sapiens, UniProt P00519, F317L).
T6 construct: nonphosphorylated
In a few lines:
as §1

Experiment [16] concerns the target MYO3A (Homo sapiens, UniProt Q8NEV4). The procedure, abridged:
as §1

In experiment [17] the target is T7, SGK (Homo sapiens, UniProt O00141).
T7 construct: gene SGK1
In a few lines:
as §1

Experiment [18] concerns the target MAPKAPK2 (Homo sapiens, UniProt P49137). In a few lines:
as §1

Experiment [19] deals with PKN2 (Homo sapiens, UniProt Q16513). The procedure, abridged:
as §1

Experiment [20] concerns the target MAK (Homo sapiens, UniProt P20794). The procedure, abridged: as §1
Experiment [21] addresses EGFR(L858R) (Homo sapiens, UniProt P00533, L858R). The procedure, abridged: as §1
In experiment [22] the target is GSK3B (Homo sapiens, UniProt P49841). In a few lines:
as §1

Experiment [23] concerns the target DYRK1A (Homo sapiens, UniProt Q13627). The procedure, abridged:
as §1

T2 sequence (Q9P2K8 whole entry S808G): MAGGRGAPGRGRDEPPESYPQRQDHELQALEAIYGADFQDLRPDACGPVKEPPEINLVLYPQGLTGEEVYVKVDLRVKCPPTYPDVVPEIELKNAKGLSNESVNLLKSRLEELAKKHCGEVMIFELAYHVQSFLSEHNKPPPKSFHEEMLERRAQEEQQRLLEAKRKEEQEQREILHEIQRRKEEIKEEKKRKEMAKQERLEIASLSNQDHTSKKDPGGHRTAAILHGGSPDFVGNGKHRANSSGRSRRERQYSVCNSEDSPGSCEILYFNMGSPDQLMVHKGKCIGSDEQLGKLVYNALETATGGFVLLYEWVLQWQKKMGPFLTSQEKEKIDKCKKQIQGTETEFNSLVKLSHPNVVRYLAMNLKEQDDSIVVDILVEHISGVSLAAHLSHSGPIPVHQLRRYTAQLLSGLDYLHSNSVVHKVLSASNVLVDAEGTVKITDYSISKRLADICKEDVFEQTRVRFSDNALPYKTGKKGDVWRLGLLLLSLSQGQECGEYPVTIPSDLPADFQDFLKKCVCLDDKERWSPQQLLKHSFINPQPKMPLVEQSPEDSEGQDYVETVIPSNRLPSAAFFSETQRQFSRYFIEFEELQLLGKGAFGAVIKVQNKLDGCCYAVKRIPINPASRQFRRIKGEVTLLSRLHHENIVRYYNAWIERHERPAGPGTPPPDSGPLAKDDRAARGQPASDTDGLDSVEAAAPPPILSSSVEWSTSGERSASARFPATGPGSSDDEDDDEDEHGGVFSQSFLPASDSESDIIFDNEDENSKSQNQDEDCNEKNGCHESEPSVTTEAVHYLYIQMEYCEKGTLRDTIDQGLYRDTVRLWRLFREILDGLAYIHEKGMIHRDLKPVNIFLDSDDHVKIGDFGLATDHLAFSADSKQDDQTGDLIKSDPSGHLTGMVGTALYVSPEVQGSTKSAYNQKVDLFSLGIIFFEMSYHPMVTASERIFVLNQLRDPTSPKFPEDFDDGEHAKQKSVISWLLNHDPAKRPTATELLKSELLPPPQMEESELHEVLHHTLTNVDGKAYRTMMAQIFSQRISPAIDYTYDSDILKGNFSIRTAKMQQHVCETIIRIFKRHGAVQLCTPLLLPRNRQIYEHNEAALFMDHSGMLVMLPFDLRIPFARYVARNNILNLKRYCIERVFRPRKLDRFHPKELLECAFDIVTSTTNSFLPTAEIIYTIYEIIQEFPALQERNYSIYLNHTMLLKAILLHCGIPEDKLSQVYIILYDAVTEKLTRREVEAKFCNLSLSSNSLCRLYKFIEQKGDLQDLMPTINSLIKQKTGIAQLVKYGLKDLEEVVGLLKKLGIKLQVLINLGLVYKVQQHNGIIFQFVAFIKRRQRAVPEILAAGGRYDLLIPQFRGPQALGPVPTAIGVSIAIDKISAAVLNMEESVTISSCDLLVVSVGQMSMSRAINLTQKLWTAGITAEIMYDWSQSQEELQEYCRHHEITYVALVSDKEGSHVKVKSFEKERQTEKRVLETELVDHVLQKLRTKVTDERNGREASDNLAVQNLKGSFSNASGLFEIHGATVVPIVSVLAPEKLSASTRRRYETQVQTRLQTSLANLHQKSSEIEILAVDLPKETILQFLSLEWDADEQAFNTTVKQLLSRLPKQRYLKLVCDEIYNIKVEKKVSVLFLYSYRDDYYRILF
Chain of EGFR(L858R,T790M) (P00533 whole entry T790M/L858R): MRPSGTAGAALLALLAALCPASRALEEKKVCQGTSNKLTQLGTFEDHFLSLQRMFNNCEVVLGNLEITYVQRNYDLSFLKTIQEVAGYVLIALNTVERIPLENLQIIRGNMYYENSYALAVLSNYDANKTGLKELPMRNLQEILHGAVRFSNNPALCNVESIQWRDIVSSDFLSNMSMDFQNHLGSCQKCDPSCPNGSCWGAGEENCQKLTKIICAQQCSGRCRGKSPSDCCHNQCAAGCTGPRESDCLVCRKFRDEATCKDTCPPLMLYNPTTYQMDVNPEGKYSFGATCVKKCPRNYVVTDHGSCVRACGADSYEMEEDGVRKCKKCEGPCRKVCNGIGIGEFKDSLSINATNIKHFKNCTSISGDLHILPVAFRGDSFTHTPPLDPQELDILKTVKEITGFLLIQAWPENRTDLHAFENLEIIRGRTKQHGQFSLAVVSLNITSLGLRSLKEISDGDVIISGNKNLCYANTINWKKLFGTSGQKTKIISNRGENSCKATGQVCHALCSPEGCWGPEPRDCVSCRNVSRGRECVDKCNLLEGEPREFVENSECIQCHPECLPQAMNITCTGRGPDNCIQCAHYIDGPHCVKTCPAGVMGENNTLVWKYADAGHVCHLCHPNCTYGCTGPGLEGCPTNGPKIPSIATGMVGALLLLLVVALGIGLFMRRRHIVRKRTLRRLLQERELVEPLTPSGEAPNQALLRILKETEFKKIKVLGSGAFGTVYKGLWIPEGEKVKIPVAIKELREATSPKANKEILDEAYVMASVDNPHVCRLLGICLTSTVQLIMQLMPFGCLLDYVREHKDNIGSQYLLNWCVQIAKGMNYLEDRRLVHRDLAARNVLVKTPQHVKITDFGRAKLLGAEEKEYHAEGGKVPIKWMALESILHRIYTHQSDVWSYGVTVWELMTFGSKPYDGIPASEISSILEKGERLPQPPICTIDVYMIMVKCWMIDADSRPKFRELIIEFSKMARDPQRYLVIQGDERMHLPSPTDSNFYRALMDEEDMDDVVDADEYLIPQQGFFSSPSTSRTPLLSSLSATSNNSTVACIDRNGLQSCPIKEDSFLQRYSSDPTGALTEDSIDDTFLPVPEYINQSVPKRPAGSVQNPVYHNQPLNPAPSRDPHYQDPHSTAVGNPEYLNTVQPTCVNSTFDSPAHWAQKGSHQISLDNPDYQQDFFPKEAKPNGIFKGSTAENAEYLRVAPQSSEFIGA
T6 sequence (P00519 whole entry F317L): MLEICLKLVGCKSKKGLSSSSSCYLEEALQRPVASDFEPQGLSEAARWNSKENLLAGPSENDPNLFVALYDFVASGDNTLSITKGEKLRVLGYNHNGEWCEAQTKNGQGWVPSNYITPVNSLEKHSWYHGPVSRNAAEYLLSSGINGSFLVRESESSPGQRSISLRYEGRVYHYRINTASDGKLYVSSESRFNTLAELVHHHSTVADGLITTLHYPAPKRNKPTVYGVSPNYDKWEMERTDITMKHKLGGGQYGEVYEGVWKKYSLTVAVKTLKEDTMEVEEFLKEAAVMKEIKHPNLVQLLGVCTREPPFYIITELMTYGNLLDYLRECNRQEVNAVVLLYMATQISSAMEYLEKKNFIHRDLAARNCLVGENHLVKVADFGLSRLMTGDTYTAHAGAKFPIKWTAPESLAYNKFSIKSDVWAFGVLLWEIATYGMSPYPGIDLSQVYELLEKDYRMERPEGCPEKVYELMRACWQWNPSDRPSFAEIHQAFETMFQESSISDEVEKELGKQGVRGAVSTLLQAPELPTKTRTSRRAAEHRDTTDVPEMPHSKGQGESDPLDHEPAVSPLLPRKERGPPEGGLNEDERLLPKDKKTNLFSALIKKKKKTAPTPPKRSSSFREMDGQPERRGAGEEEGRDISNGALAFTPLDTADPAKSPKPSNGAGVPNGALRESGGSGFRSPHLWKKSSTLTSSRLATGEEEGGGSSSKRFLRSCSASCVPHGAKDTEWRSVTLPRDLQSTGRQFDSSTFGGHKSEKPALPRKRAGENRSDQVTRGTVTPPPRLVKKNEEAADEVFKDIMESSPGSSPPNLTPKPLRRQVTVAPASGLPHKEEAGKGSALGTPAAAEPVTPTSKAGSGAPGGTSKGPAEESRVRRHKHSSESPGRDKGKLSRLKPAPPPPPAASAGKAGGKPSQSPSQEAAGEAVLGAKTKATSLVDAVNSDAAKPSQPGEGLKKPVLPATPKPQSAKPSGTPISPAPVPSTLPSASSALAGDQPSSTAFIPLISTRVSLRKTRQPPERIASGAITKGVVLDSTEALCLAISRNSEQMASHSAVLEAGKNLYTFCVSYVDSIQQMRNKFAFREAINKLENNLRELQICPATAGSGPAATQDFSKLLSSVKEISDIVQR
T4 sequence (P51812 whole entry): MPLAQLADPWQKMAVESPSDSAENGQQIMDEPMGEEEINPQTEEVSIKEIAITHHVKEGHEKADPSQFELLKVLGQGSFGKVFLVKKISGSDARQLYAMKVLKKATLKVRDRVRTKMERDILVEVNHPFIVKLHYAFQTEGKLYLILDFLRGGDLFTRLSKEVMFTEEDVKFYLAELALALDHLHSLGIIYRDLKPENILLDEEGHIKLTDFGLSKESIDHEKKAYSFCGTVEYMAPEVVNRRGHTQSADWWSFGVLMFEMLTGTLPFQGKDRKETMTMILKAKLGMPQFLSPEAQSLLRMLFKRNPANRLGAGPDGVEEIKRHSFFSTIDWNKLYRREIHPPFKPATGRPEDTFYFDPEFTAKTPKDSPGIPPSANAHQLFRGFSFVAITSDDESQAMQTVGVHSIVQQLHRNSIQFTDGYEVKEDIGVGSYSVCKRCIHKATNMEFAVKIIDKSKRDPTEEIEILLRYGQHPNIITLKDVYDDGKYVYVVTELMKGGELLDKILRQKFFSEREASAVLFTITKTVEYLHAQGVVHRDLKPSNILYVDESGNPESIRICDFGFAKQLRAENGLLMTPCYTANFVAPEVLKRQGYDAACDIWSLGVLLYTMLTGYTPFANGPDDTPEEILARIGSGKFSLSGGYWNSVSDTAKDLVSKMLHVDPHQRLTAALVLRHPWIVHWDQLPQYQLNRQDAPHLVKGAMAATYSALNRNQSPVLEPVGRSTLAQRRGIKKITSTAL
T3 sequence (Q15759 whole entry): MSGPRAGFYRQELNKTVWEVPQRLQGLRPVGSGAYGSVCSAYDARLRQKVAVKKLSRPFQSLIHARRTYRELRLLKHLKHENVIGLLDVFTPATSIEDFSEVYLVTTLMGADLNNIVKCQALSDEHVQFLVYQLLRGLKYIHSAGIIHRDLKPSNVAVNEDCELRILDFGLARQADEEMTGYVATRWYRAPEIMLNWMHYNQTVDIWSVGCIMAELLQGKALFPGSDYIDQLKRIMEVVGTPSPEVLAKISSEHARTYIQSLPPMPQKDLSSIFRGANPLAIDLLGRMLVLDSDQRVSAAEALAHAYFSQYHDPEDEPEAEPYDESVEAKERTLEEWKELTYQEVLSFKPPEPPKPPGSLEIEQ

For `CNS(=O)(=O)c1ccc(N(C)C)c(Nc2ncnc3cc(OC)c(OC)cc23)c1` [compound 7, 3-((6,7-dimethoxyquinazolin-4-yl)amino)-4-(dimethylamino)-N-methylbenzenesulfonamide], the inhibition at 1 µM in experiment [1] came to 7%; in experiment [2], 0%; in [3], 2%; in experiment [4], 0%; in experiment [5] it was 14%; in [6], 0%. Further, the inhibition at 1 µM is 0% in experiment [7]; 7% in experiment [8]; 0% in experiment [9]; 0% in experiment [10]; 13% in [11]; 30% in [12]. In addition, the inhibition at 1 µM in experiment [13] amounted to 0%; in experiment [14], 22%; in experiment [15] it was 29%; in experiment [16] it was 0%; in experiment [17] it was 1%; in [18], 0%. Also, the inhibition at 1 µM in experiment [19] stood at 11%; in experiment [20], 0%; in [21], 8%; in [22], 0%; in [23], 0%.
